Data on 8 molecules can be found in ChEMBL document CHEMBL5465560, “Selectivity Literature for EUbOPEN Chemogenomic Library” (2024).

SMILES strings stand for the structures.

Experiment [1] addresses Ribosomal protein S6 kinase beta-1 (Homo sapiens, UniProt P23443). Nature of the experiment: Selectivity interaction (ActivX KiNativ screen (ex vivo kinase selectivity in human PBMCs)) EUB0001619a RPS6KB1. Type of experiment: cell-based. Conditions: PBMC, at 1 µM.
In experiment [2] the target is Macrophage-stimulating protein receptor (Homo sapiens, UniProt Q04912). Briefly: Selectivity interaction (KinomeScan (DiscoverX)) EUB0000695a MST1R. The note with it: at 100 nM.
Experiment [3] concerns the target Protein-tyrosine kinase 2-beta (Homo sapiens) (UniProt Q14289). Nature of the experiment: Selectivity interaction (KinomeScan (DiscoverX)) EUB0000607a PTK2B. The note with it: at 10 µM.
In experiment [4] the target is T1, Serine/threonine-protein kinase tousled-like 1 (Homo sapiens) (UniProt Q9UKI8).
T1 sequence (whole entry): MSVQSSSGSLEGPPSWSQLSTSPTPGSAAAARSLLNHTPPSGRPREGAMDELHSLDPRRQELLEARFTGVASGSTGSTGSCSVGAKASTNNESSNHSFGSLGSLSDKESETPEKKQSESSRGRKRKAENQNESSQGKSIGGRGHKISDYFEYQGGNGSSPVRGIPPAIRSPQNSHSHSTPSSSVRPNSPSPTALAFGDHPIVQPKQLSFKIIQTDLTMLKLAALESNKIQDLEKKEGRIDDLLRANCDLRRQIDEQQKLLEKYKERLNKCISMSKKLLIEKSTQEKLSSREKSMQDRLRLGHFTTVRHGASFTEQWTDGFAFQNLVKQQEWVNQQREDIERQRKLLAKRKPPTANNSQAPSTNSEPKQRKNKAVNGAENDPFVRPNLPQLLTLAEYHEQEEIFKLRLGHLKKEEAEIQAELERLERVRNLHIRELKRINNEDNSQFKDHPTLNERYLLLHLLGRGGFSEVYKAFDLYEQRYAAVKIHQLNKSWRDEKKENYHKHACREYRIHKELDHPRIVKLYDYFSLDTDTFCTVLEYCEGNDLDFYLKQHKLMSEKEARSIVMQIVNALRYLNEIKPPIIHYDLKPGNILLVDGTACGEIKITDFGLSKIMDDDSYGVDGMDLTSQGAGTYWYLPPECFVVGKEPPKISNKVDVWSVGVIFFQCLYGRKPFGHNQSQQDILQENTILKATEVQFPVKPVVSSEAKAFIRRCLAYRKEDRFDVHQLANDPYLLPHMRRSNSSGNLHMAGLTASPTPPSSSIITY
Briefly: Selectivity interaction (ActivX KiNativ screen (kinase selectivity in THP-1 cell lysates)) EUB0000639a TLK1. In kind it is subcellular. The note with it: lysate, at 0.2 µM.

The target in experiment [5] is T2, Non-receptor tyrosine-protein kinase TNK1 (Homo sapiens) (UniProt Q13470).
T2 sequence (whole entry): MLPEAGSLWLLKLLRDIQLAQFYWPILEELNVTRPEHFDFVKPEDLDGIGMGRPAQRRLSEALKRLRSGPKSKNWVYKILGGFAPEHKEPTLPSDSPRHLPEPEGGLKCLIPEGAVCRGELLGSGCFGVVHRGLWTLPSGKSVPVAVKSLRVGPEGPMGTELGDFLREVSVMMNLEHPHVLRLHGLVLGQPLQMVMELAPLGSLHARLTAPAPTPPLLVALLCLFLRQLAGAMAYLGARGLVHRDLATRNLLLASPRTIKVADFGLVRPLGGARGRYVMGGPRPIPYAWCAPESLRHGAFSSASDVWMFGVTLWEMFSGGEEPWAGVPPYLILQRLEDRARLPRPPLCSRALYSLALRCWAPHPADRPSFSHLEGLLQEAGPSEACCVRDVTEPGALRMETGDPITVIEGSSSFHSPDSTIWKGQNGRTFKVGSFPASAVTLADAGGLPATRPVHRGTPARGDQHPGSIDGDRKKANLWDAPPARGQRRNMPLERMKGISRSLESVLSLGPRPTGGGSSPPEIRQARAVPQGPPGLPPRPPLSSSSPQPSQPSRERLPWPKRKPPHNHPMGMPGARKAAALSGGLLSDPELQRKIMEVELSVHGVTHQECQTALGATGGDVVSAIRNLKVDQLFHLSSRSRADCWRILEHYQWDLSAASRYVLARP
Briefly: Selectivity interaction (Kinase panel (Carna Biosciences)) EUB0001542aTs TNK1. The note with it: at 1 µM.

Experiment [6] concerns the target Nuclear body protein SP140-like protein (Homo sapiens) (UniProt Q9H930). Briefly: Selectivity interaction (Bromodomain panel (DSF asssay)) EUB0000270b SP140L.
Experiment [7] concerns the target T3, Serine/threonine-protein kinase Nek9 (Homo sapiens) (UniProt Q8TD19).
T3 sequence (whole entry): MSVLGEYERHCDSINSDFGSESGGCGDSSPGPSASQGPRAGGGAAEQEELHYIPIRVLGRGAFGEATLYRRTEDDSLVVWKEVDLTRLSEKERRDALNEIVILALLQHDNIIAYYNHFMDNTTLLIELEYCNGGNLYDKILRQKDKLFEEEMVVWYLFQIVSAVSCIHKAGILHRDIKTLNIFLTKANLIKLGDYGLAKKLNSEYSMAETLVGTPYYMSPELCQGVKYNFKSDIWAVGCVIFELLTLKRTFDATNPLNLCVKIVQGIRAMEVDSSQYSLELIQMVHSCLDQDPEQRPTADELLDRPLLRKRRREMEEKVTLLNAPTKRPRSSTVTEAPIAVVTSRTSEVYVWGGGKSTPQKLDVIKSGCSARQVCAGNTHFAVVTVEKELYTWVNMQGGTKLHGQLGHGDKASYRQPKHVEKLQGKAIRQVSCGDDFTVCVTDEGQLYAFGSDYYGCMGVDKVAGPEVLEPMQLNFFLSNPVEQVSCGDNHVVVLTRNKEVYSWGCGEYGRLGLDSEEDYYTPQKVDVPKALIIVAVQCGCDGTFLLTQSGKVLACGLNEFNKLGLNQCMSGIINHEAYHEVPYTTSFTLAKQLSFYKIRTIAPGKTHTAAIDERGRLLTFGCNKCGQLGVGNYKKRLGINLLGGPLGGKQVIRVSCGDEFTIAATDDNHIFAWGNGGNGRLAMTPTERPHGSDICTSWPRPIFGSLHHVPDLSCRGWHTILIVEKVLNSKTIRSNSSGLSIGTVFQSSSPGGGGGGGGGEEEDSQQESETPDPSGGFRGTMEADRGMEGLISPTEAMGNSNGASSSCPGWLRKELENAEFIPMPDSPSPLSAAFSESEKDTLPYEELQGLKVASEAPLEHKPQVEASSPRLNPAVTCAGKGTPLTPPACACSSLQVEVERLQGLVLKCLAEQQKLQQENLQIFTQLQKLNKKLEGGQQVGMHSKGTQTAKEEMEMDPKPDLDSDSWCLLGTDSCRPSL
Briefly: Selectivity interaction (KinomeScan (DiscoverX)) EUB0000618a NEK9. The note with it: at 10 µM.

The target in experiment [8] is Homeodomain-interacting protein kinase 1 (Homo sapiens, UniProt Q86Z02). Nature of the experiment: Selectivity interaction (KinomeScan (DiscoverX)) EUB0000618a HIPK1. The note with it: at 10 µM.
The target of experiment [9] is Ribosomal protein S6 kinase alpha-4 (Homo sapiens) (UniProt O75676). Nature of the experiment: Selectivity interaction (KinomeScan (DiscoverX)) EUB0000229b RPS6KA4. The note with it: at 10 µM.
Ribosomal protein S6 kinase alpha-4 (Homo sapiens), sequence (O75676 whole entry, looked up): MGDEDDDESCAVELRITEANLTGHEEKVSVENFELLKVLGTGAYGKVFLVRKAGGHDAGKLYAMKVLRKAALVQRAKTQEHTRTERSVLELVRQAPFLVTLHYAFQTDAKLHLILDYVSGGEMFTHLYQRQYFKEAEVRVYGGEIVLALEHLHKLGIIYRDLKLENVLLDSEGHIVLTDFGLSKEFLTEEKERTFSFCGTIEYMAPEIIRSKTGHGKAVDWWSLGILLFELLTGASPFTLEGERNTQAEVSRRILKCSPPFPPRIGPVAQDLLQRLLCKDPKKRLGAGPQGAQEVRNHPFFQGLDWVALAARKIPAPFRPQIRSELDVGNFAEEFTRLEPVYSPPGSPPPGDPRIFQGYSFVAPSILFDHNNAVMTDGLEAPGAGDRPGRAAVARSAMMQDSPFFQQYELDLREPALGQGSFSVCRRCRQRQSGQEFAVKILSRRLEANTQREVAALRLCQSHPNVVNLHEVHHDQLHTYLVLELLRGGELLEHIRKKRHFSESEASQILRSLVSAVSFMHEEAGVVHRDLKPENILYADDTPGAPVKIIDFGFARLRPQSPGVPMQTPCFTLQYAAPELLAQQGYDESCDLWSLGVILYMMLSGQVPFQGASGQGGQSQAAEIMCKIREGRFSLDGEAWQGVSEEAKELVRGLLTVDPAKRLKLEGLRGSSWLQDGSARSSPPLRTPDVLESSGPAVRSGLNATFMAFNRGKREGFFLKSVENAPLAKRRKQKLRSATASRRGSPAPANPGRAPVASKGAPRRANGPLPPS

Macrophage-stimulating protein receptor, sequence (Q04912 25-304 limits assumed): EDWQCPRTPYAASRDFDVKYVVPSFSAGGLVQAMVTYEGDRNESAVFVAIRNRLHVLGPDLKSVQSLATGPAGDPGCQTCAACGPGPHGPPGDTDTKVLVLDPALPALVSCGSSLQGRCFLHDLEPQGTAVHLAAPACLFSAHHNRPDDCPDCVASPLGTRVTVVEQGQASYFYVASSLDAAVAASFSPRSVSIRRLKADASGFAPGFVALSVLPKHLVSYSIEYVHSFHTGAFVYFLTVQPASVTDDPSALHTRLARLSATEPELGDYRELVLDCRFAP
Macrophage-stimulating protein receptor, sequence (Q04912 310-1400 limits assumed): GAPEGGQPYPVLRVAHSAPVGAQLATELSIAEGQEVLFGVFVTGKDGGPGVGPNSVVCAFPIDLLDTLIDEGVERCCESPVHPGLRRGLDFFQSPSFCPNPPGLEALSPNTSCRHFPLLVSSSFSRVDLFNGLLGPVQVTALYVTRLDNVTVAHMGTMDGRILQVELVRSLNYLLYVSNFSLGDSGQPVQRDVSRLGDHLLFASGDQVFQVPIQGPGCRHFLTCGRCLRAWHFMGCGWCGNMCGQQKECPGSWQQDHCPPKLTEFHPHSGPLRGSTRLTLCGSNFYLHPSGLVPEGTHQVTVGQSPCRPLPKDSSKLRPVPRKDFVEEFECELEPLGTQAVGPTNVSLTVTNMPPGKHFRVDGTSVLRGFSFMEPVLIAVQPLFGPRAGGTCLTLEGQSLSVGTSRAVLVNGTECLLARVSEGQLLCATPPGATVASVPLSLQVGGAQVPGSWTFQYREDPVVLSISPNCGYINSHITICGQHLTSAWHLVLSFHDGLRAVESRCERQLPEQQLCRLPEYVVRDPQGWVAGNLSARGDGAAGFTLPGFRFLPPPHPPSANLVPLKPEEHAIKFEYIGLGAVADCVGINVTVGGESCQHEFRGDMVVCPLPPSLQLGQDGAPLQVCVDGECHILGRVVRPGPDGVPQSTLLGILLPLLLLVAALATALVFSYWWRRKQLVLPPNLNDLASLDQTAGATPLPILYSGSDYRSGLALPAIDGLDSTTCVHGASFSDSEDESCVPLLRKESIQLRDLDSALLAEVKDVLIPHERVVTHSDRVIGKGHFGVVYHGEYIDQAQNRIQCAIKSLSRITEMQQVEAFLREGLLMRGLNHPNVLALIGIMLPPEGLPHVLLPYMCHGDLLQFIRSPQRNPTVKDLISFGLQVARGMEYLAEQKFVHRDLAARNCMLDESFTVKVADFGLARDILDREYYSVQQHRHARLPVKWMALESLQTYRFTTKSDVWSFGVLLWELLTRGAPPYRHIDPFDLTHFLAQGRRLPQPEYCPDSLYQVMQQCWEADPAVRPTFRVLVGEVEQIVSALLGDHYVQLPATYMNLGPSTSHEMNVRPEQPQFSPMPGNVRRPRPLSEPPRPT
Nuclear body protein SP140-like protein (Homo sapiens), sequence (Q9H930 whole entry): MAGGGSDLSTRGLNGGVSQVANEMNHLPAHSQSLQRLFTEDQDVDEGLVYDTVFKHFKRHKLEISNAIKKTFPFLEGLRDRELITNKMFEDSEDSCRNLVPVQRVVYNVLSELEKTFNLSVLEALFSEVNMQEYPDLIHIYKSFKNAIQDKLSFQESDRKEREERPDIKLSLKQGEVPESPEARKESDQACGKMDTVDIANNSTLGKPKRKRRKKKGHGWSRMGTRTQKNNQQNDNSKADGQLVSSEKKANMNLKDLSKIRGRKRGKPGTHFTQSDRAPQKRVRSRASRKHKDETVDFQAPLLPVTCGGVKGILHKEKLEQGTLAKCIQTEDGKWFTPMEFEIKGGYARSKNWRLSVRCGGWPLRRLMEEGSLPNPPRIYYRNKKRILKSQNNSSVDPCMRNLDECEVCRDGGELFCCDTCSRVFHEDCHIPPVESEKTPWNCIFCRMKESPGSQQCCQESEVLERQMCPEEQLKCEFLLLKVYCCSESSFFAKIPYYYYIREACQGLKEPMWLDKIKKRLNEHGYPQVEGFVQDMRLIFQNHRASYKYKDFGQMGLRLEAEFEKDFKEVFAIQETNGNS
Protein-tyrosine kinase 2-beta (Homo sapiens), sequence (Q14289 whole entry, looked up): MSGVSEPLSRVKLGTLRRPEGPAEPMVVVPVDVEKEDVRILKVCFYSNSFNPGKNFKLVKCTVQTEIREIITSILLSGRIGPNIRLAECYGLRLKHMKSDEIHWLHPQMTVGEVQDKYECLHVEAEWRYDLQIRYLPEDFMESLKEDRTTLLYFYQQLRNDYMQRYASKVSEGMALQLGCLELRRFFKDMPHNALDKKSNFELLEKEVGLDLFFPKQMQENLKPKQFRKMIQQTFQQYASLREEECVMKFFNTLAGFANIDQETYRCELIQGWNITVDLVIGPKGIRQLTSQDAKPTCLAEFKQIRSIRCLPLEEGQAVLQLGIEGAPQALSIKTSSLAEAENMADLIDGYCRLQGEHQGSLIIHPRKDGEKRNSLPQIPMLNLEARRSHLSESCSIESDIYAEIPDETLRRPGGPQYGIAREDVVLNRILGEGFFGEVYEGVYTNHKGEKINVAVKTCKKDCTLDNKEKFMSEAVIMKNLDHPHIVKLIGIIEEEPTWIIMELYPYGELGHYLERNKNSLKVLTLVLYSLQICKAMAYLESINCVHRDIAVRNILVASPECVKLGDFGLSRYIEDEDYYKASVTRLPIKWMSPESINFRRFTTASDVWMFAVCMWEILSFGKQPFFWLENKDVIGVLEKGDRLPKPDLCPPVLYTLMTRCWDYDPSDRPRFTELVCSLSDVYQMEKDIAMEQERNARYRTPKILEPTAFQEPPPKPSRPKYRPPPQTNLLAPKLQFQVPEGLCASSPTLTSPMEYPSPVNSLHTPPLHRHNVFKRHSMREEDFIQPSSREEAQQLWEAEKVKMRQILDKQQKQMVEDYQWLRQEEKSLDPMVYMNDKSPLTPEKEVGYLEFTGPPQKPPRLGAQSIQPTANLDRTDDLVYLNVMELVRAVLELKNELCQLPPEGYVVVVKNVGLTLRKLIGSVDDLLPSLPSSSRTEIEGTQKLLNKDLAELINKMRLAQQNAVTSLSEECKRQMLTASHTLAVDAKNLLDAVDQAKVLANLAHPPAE
Homeodomain-interacting protein kinase 1, sequence (Q86Z02 whole entry, looked up): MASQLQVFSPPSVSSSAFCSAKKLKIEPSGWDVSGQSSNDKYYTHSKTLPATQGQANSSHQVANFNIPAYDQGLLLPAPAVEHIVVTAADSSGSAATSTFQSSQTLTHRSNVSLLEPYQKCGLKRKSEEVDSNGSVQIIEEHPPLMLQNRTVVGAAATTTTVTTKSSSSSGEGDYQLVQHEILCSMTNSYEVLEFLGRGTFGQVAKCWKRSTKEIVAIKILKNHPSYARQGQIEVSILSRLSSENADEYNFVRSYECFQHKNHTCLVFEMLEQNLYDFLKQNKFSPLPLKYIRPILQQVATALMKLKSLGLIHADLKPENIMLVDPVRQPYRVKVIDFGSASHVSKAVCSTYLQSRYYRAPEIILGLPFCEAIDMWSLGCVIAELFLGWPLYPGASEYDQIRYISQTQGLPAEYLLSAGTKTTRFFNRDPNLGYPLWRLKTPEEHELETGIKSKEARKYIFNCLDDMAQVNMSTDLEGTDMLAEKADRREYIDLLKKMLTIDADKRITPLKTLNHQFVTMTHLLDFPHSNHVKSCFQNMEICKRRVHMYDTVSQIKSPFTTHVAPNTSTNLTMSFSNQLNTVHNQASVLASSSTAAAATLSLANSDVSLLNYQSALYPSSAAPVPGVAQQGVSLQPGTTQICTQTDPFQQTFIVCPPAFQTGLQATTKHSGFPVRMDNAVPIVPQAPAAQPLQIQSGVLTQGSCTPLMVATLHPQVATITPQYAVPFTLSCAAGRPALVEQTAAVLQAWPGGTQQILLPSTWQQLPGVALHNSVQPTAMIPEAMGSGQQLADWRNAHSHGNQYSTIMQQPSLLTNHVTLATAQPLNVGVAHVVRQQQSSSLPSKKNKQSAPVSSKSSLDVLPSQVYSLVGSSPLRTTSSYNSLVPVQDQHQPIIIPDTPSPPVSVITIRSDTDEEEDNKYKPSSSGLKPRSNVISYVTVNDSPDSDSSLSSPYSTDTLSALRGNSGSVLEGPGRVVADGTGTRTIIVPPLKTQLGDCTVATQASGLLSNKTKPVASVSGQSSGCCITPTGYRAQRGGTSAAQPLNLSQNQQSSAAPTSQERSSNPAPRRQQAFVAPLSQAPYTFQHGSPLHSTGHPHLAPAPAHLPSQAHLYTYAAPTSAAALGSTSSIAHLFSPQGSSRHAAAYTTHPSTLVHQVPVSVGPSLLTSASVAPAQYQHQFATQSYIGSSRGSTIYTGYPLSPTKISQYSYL

In the case of `N#Cc1cccc(-c2c[nH]c3ncnc(N4CCOCC4)c23)c1`, the % of inhibition in [1] was -10%.
The molecule `Cc1cc(F)c(C(=O)Nc2cccc(-c3nncn3C(C)C)n2)cc1-n1cnc(C2CC2)c1` registered a % of control in experiment [2] of 100%.
Take `CNC(=O)Nc1ccc(-c2nc(N3CC4CCC(C3)O4)c3cnn(C4CCC5(CC4)OCCO5)c3n2)cc1`: in experiment [3], the % of control stood at 100%.
Take `CC[C@@H]1[C@H](F)C(=O)N[C@@H]1COc1nccc2cc(C(N)=O)c(OC)cc12` [ZIMLOVISERTIB]: the % of inhibition in [4] amounted to 9.2%.
With `Cn1cc(Nc2nccc(N3CC4CCC(C3)N4C(=O)[C@@H]3CC3(F)F)n2)cn1`, the % of inhibition in experiment [5] turned out to be 94%.
On to `Cc1cc(CN)cc(C)c1-c1ncn(C)c1-c1cncn1C`, for which the dTM in experiment [6] is -2.98 K.
For `O[C@H]1CC[C@H](Nc2ncc3nc(Nc4c(F)cc(F)cc4F)n([C@H]4CCOC4)c3n2)CC1`, the % of control in experiment [7] came out at 100%; in experiment [8] it was 93%.
In turn, `COc1cc(N(C)c2ccnc3ccc(C(F)(F)F)cc23)cc(OC)c1OC` yielded a % binding in experiment [9] of 75%.
